The text below walks through data of article PMC12974487, “Inhibition of FicD-mediated AMPylation and deAMPylation by isoprenoid diphosphates” (Proceedings of the National Academy of Sciences of the …, 2026).

Each structure is given as a SMILES string. “Also recorded” adds a separate entry of the source.

The experiment concerns the target T1, FicD^R374C (Homo sapiens, UniProt Q9BVA6, R374C).
T1 construct: Wild-type FicD (residues 105-458) and all mutants were expressed as N-terminal 6xHis-Sumo fusions; 6xHis-Sumo (N, cleaved yes); made in house; host or cells: Rosetta(DE3) E. coli
T1 sequence (Q9BVA6 105-458 R374C): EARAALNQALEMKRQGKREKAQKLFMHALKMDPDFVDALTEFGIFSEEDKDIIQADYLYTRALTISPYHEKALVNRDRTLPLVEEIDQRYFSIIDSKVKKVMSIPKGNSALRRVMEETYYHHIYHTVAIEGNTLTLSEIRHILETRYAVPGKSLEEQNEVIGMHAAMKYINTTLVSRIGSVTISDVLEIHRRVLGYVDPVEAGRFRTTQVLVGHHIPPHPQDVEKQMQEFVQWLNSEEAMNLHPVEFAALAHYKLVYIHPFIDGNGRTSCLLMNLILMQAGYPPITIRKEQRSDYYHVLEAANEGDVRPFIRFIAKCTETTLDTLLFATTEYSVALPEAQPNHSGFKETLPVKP
Nature of the experiment: AMPylation of Δ26hBiP^T229A by pathogenic variant FicD^R374C. It counts as biochemical. Particulars: indicated concentrations of FPP. An excerpt: Fig. 5. Crystal structure of FPP inhibitor bound to FicD active site. […] FPP (cyan stick) and Mg^2+ (cyan sphere) in the pocket of FicD shown as APBS electrostatic surface with positive areas in blue, negative in red, and neutral in white (contour level: ±5 kBT/e) (Right). […] (C–E) AMPylation assays of Δ26hBiP^T229A in the presence of the indicated concentration of FPP using the pathogenic human variants (C) FicD^R371S, (D) FicD^R374H and (E) FicD^R374C. AMPylated BiP and Fic were quantified by immunodetection, and total BiP was quantified by CBB. […]
Isothermal Titration Calorimetry
Proteins were dialyzed against 25mM HEPES pH 7.4/100mM KCl/10% glycerol prior to titration. […]
MgCl2 was added to […]
proteins to a final concentration of 4mM. ITC experiments were performed in a Micro-Cal PEAQ-ITC (Malvern Panalytical, Worcestershire, UK) calorimeter with a stirred 206.2 μL reaction cell held at 20 °C. 250μM FPP was titrated into 25uM Δ104hFicL258D with 750rpm stirring. The first injection was 0.5 μL, followed by twenty 1.9 μL injections. […]
Thermogram and binding figures were plotted in
For AMPylation assays with FicD and BiP, Δ104FicDWT and Δ26hBiPT229A were combined at a ratio of 1:80 in buffer containing 25mM HEPES pH 7.4, 100mM KCl, 5mM MgCl2, 500μM ATP, 1mM DTT, and small molecule where indicated. Assays with Δ104FicDWT were incubated for 1 hour. […]

In the case of `CC(C)=CCC/C(C)=C/CC/C(C)=C/COP(=O)(O)OP(=O)(O)O` [FPP, farnesyl-pyrophosphate], the “FPP inhibition of FicD^R374C mediated AMPylation” value is recorded as “inhibition; also recorded: inhibited”.
